Here are results for one molecule from patent US20260176289A1, “SMALL MOLECULE INHIBITORS OF KRAS PROTEINS” (Merck Sharp & Dohme LLC, priority 2022, published 2026).

For test [1], the system named is SW620 cells. As to the kind of experiment: Cellular phospho-ERK assay, SW620 cells (homozygous KRAS-G12V). The note with it: Homo sapiens, SW-620, KRAS-G12V, 2 hours, read-out: SW620 pERK IC50. It is filed as cell-based. In short, it runs like this: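 Readout: p-ERK/total ERK ratio measured by Alpha SureFire Ultra multiplex in lysates after 2 h compound exposure (37 °C, 5% CO2). Dosing ran 10 points, 1:3 dilutions, highest final concentration 30 μM. IC50 values derived by four-parameter logistic regression.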

Test [2] concerns the target KRAS-G13D (Homo sapiens, UniProt P01116, G13D). As to the kind of experiment: SOS-catalyzed nucleotide exchange assay (Procedure A, TR-FRET), KRAS-G13D. The settings on record: nucleotide exchange, Procedure A; read-out: KRAS G13D GNE IC50. It is filed as biochemical.
The target of test [3] is KRAS-G12V (Homo sapiens, UniProt P01116, G12V). As to the kind of experiment: SOS-catalyzed nucleotide exchange assay (Procedure A, TR-FRET), KRAS-G12V. Format: biochemical. The settings on record: nucleotide exchange, read-out: KRAS G12V GNE IC50. In short, it runs like this: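 Signal ratio (520/495 nm, excitation 340 nm) reports Bodipy-GDP retention on biotinylated RAS after SOS-catalyzed exchange with 3 mM GTP. SOS was 40 nM, except 160 nM for G12V. Room-temperature exchange lasted 60 min (90 min for G12V), following a 60 min compound preincubation.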
For orientation: In TR-FRET formats the signal depends on donor and acceptor labels being close together.

Molecules are shown by their SMILES.

Sequence of KRAS-G13D (P01116 with tags, fused parts or gaps isoform P01116-2 G13D): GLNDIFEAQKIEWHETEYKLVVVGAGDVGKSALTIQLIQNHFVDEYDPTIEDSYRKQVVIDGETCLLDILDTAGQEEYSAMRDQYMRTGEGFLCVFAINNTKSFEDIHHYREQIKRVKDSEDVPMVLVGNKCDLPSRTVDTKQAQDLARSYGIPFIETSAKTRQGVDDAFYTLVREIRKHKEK
Sequence of KRAS-G12V (P01116 with tags, fused parts or gaps isoform P01116-2 G12V): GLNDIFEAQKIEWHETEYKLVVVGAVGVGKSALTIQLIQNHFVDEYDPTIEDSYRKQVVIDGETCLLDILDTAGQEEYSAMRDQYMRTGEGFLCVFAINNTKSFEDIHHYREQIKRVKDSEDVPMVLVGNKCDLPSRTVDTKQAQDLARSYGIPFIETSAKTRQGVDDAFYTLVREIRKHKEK

Consider `C#Cc1c(F)ccc2cc(O)cc(-c3nccc4c5c(N6CCOC[C@@](C)(O)C6)nc(OC[C@@]67CCCN6C[C@H](F)C7)nc5n(C)c34)c12` [Ex-18, (S)-4-(8-(8-ethynyl-7-fluoro-3-hydroxynaphthalen-1-yl)-2-(((2R,7aS)-2-fluorotetrahydro-1H-pyrrolizin-7a(5H)-yl)methoxy)-9-methyl-9H-pyrido[4′,3′:4,5]pyrrolo[2,3-d]pyrimidin-4-yl)-6-methyl-1,4-oxazepan-6-ol], for which the IC50 (commonly the point on the concentration scale where inhibition reaches its midpoint) in test [1] came out at 13.1 nM; in test [2], 2.66 nM; in test [3] it was 3.85 nM.
